Data set [1] addresses Sodium-dependent noradrenaline transporter (Homo sapiens, UniProt P23975). Nature of the data set: DRUGMATRIX: Norepinephrine Transporter radioligand binding (ligand: [125I] RTI-55). The class given is cell membranes, MDCK, Membrane. Particulars: Not Active = under 50% inhibition at 10 µM.
Data set [2] concerns the target T1, 3-hydroxy-3-methylglutaryl-coenzyme A reductase (Homo sapiens, UniProt P04035).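 Also: enzyme inhibition assay of HMG-CoA reductase using radiolabeled [14C]HMG-CoA as substrate; in other assays of this panel Not Active means under 50% inhibition at 10 µM.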
T1 sequence (P04035 whole entry): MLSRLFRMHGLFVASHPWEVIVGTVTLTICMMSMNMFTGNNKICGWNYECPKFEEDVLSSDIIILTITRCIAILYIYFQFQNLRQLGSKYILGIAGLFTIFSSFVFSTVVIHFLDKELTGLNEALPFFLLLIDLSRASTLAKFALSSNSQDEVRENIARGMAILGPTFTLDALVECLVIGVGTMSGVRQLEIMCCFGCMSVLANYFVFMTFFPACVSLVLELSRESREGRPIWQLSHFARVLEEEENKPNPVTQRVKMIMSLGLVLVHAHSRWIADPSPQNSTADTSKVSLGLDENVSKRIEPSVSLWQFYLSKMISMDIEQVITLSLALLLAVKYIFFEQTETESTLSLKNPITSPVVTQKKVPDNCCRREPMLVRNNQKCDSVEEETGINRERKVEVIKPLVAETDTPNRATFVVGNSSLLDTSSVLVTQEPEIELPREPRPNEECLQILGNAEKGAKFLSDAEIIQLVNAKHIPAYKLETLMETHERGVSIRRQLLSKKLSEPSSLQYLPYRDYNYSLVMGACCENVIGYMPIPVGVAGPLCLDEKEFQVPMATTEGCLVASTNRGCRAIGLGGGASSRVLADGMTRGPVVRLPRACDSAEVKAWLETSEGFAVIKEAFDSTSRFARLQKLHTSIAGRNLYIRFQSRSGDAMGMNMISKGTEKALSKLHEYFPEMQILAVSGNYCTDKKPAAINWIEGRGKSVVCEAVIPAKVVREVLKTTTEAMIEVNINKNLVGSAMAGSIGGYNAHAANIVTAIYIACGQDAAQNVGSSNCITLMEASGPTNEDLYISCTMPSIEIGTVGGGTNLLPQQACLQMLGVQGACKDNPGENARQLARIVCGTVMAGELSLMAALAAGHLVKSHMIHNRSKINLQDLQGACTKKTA
The arrangement: species or system Escherichia coli.

A further data set has as its target Estrogen receptor beta (Homo sapiens, UniProt Q92731). As to conditions: sf9. Also: in other assays of this panel Not Active means under 50% inhibition at 10 µM.
The target in a further data set is Vasopressin V1a receptor (Homo sapiens, UniProt P37288). The class given is cell membranes, Membrane. Particulars: hek293. Also: in other assays of this panel Not Active means under 50% inhibition at 10 µM.
Chain of Vasopressin V1a receptor (P37288 whole entry): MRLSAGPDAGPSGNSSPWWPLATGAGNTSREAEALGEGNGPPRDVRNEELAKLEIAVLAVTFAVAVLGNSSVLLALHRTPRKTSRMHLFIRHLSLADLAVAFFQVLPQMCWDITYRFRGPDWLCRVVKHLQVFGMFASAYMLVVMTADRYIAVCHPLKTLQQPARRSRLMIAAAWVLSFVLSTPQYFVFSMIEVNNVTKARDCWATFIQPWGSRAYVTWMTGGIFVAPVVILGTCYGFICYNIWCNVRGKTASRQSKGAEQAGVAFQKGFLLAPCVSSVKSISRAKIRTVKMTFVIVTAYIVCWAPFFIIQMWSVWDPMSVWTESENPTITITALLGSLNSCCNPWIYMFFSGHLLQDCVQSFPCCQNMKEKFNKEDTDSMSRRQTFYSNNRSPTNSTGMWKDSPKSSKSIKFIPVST
Data set [3] in a line: DRUGMATRIX: GABAA, Flunitrazepam, Central radioligand binding (ligand: [3H] Flunitrazepam). The class given is cell membranes, Rattus norvegicus, Wistar, Brain, Membrane. Particulars: Not Active = under 50% inhibition at 10 µM.
The target in data set [4] is Platelet-activating factor receptor (Homo sapiens, UniProt P25105). Type of data set: tissue-based. Also: in other assays of this panel Not Active means under 50% inhibition at 10 µM.
Chain of Platelet-activating factor receptor (P25105 whole entry): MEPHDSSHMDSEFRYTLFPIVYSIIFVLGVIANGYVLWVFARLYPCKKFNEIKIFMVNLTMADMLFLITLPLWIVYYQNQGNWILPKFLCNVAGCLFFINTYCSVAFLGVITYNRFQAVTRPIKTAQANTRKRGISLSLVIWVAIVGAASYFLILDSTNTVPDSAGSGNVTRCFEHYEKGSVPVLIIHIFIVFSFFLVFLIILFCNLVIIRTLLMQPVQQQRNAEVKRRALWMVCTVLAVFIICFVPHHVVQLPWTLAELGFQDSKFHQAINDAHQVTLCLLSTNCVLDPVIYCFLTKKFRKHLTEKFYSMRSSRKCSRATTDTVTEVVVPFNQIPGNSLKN
The target of data set [5] is Mitogen-activated protein kinase 14 (Homo sapiens, UniProt Q16539). The arrangement: species or system Escherichia coli.
Chain of Mitogen-activated protein kinase 14 (Q16539 whole entry): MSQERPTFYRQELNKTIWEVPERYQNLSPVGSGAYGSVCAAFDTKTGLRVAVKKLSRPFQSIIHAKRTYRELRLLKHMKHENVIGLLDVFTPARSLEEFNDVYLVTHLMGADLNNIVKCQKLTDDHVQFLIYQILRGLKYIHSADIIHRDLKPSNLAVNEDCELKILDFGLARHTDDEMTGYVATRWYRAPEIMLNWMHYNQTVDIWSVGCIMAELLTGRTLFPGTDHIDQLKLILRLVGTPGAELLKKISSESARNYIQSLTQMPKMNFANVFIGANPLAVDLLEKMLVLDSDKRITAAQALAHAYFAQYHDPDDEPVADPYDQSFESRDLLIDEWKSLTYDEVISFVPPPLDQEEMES
The target in the next data set is Cytochrome P450 2D6 (Homo sapiens, UniProt P10635). Particulars: bti-tn-5b1-4. Also: in other assays of this panel Not Active means under 50% inhibition at 10 µM.
Chain of Cytochrome P450 2D6 (P10635 whole entry): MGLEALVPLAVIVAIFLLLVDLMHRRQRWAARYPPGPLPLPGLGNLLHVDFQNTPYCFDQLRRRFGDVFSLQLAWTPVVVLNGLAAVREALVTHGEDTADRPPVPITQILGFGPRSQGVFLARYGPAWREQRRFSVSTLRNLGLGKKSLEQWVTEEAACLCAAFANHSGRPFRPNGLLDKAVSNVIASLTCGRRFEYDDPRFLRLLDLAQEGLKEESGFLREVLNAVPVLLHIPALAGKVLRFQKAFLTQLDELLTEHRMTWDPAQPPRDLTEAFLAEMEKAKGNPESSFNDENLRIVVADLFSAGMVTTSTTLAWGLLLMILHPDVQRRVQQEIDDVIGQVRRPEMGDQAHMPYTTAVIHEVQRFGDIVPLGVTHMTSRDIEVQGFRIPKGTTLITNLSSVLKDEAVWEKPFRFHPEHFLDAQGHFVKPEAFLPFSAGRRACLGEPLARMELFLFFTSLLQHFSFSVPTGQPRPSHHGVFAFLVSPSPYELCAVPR

Chain of Estrogen receptor beta (Q92731 whole entry): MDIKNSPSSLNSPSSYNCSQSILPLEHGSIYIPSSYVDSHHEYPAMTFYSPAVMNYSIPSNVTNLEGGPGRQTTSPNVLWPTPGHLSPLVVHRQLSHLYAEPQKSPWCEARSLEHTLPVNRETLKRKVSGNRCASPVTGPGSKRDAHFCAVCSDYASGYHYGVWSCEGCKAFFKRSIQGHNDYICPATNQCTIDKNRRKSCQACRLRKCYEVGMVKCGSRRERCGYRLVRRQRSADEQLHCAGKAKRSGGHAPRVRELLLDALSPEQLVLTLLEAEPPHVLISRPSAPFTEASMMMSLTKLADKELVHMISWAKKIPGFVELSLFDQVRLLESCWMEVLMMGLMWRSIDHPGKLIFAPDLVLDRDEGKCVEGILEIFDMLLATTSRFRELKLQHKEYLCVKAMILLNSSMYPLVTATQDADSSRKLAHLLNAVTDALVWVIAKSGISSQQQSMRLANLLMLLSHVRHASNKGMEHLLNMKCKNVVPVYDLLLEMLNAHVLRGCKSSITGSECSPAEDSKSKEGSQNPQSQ
Chain of Sodium-dependent noradrenaline transporter (P23975 whole entry): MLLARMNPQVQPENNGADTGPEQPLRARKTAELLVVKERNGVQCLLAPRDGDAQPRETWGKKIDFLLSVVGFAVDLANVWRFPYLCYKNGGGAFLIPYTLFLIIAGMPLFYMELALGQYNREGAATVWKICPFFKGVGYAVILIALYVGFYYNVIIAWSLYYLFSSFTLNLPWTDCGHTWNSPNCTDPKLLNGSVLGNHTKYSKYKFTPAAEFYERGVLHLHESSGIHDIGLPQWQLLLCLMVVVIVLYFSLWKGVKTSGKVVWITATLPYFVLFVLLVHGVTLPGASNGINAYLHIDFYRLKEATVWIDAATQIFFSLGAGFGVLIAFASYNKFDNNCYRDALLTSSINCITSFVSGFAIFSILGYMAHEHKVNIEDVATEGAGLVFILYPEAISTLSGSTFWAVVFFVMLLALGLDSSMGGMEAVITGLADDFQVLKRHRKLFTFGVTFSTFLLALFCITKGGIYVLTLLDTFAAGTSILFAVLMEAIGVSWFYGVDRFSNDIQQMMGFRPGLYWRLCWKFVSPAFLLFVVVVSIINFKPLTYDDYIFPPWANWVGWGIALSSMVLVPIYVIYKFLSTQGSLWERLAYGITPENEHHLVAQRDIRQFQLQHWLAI

By IC50 is commonly meant the midpoint of a concentration-inhibition curve. As usually defined, the Ki is a measure of affinity in units of concentration, obtained from inhibition or displacement. For the molecule `Oc1ccc(OCc2ccccc2)cc1` [MONOBENZONE], the concentration for half-maximal inhibition (IC50) is 3.89 µM in data set [1] (read-out: IC50); “Not Active” in data set [2]; “Not Active” at Estrogen receptor beta; “Not Active” against Vasopressin V1a receptor; “Not Active” in data set [3]; “Not Active” in data set [4]. In addition, the 50% inhibitory concentration (IC50) result (in data set [5]; on Cytochrome P450 2D6) was “Not Active” each time. Besides, the inhibition constant (Ki) in data set [1] (read-out: Ki) was 3.85 µM; in data set [3], “Not Active”; on Cytochrome P450 2D6 it was “Not Active”.

For `CC(C)(Oc1ccc(C2CCCc3ccccc32)cc1)C(=O)O` (configuration not stated) [NAFENOPIN], the IC50 entry (in data set [1] (mdck); in data set [2]; at Estrogen receptor beta; against Vasopressin V1a receptor; in data set [3]; in data set [4]) was “Not Active” each time. In addition, the 50% inhibitory concentration (IC50) in data set [5] (read-out: IC50) was 3.74 µM; against Cytochrome P450 2D6, “Not Active”. Also, the Ki entry (in data set [3]; at Cytochrome P450 2D6) was “Not Active” in each case.

Turning to `CC(C)[C@H]1CC[C@H](C(=O)N[C@H](Cc2ccccc2)C(=O)O)CC1` [NATEGLINIDE], the IC50 entry (in data set [1] (mdck); in data set [2]; against Estrogen receptor beta; against Vasopressin V1a receptor; in data set [3]; in data set [4]) was “Not Active” each time. Moreover, the IC50 result (in data set [5]; on Cytochrome P450 2D6) was “Not Active” each time. For the same molecule, the Ki result (in data set [3]; at Cytochrome P450 2D6) was “Not Active” throughout.

Regarding `CCN[C@@H]1C[C@H](N)[C@@H](O[C@H]2OC(CN)=CC[C@H]2N)[C@H](O)[C@H]1O[C@H]1OC[C@](C)(O)[C@H](NC)[C@H]1O` [NETILMICIN], the IC50 entry (in data set [1] (mdck); in data set [2]; against Estrogen receptor beta; against Vasopressin V1a receptor; in data set [3]; in data set [4]) was “Not Active” each time. Also, the half-inhibitory concentration (IC50) entry (in data set [5]; against Cytochrome P450 2D6) was “Not Active” in each case. Besides, the Ki result (in data set [3]; on Cytochrome P450 2D6) was “Not Active” throughout.

As for `CCOC(=O)C1=C(C)NC(C)=C(C(=O)OC)C1c1cccc([N+](=O)[O-])c1` (configuration not stated) [NITRENDIPINE], the IC50 entry (in data set [1] (mdck); in data set [2]; on Estrogen receptor beta; against Vasopressin V1a receptor; in data set [3]; in data set [4]) was “Not Active” throughout. In addition, the concentration for half-maximal inhibition (IC50) result (in data set [5]; at Cytochrome P450 2D6) was “Not Active” in each case. Further, the Ki entry (in data set [3]; on Cytochrome P450 2D6) was “Not Active” throughout.

In the case of `C#C[C@]1(OC(C)=O)CC[C@H]2[C@@H]3CCC4=CC(=O)CC[C@@H]4[C@H]3CC[C@@]21C` [NORETHINDRONE ACETATE], the IC50 result (in data set [1] (mdck); in data set [2]; against Estrogen receptor beta; at Vasopressin V1a receptor; in data set [3]; in data set [4]) was “Not Active” each time. Also, the IC50 entry (in data set [5]; on Cytochrome P450 2D6) was “Not Active” in each case. Further, the inhibition constant (Ki) result (in data set [3]; on Cytochrome P450 2D6) was “Not Active” throughout.

As for `COc1ccc2[nH]c([S+]([O-])Cc3ncc(C)c(OC)c3C)nc2c1` (configuration not stated) [OMEPRAZOLE], the concentration for half-maximal inhibition (IC50) entry (in data set [1] (mdck); in data set [2]; against Estrogen receptor beta; against Vasopressin V1a receptor; in data set [3]; in data set [4]) was “Not Active” throughout. Further, the 50% inhibitory concentration (IC50) entry (in data set [5]; against Cytochrome P450 2D6) was “Not Active” throughout. Also, the Ki result (in data set [3]; on Cytochrome P450 2D6) was “Not Active” in each case.

Take `Cc1nccn1CC1CCc2c(c3ccccc3n2C)C1=O` (configuration not stated) [ONDANSETRON]: the IC50 entry (in data set [1] (mdck); in data set [2]; at Estrogen receptor beta; against Vasopressin V1a receptor; in data set [3]; in data set [4]) was “Not Active” each time. Moreover, the half-inhibitory concentration (IC50) entry (in data set [5]; against Cytochrome P450 2D6) was “Not Active” in each case. In addition, the Ki entry (in data set [3]; on Cytochrome P450 2D6) was “Not Active” each time.

As for `CCCCOc1ccc(OCCCN2CCOCC2)cc1` [PRAMOXINE], the IC50 entry (in data set [1] (mdck); in data set [2]; against Estrogen receptor beta; on Vasopressin V1a receptor; in data set [3]; in data set [4]) was “Not Active” in each case. In addition, the IC50 entry (in data set [5]; against Cytochrome P450 2D6) was “Not Active” each time. Moreover, the inhibition constant (Ki) result (in data set [3]; at Cytochrome P450 2D6) was “Not Active” each time.

`NC(=O)c1cnccn1` [PYRAZINAMIDE]: the concentration for half-maximal inhibition (IC50) result (in data set [1] (mdck); in data set [2]; against Estrogen receptor beta; on Vasopressin V1a receptor; in data set [3]; in data set [4]) was “Not Active” in each case. Further, the half-inhibitory concentration (IC50) entry (in data set [5]; at Cytochrome P450 2D6) was “Not Active” each time. Further, the Ki entry (in data set [3]; on Cytochrome P450 2D6) was “Not Active” in each case.

As for CADMIUM DICHLORIDE, the IC50 result (in data set [1] (mdck); in data set [2]; against Estrogen receptor beta; against Vasopressin V1a receptor; in data set [3]; in data set [4]) was “Not Active” throughout. Moreover, the IC50 result (in data set [5]; against Cytochrome P450 2D6) was “Not Active” throughout. The Ki result (in data set [1] (mdck); in data set [2]; on Estrogen receptor beta; at Vasopressin V1a receptor; in data set [3]; in data set [4]) was “Not Active” in each case. The Ki result (in data set [5]; at Cytochrome P450 2D6) was “Not Active” in each case.

Source of the values: ChEMBL document CHEMBL1909046, “DrugMatrix in vitro pharmacology data”.
